The target in the first assay is Ba/F3 V617F cells (Homo sapiens, UniProt O60674, V617F, cells depend on it). The assay is described as follows: Proliferation assay (Cell Titer-Glo, 72 h) utilizing Ba/F3 V617F cells. It is filed as cell-based, mouse. Conditions: Ba/F3 V617F cells, proliferation, level of activity given as class symbol, read-out: IC50 (the source's name). In a few lines:
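Readout is CellTiter-Glo luminescence after 72 h at 37 °C, giving IC50. Cells: Ba/F3 V617F, 1×10^5 cells/mL in RPMI with 10% FBS, treated in duplicate with 3-fold dilution series made from 5 mM DMSO stock, 1:250 in 5% FBS medium, added at 2×.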
Sequence of Ba/F3 V617F cells (O60674 whole entry V617F): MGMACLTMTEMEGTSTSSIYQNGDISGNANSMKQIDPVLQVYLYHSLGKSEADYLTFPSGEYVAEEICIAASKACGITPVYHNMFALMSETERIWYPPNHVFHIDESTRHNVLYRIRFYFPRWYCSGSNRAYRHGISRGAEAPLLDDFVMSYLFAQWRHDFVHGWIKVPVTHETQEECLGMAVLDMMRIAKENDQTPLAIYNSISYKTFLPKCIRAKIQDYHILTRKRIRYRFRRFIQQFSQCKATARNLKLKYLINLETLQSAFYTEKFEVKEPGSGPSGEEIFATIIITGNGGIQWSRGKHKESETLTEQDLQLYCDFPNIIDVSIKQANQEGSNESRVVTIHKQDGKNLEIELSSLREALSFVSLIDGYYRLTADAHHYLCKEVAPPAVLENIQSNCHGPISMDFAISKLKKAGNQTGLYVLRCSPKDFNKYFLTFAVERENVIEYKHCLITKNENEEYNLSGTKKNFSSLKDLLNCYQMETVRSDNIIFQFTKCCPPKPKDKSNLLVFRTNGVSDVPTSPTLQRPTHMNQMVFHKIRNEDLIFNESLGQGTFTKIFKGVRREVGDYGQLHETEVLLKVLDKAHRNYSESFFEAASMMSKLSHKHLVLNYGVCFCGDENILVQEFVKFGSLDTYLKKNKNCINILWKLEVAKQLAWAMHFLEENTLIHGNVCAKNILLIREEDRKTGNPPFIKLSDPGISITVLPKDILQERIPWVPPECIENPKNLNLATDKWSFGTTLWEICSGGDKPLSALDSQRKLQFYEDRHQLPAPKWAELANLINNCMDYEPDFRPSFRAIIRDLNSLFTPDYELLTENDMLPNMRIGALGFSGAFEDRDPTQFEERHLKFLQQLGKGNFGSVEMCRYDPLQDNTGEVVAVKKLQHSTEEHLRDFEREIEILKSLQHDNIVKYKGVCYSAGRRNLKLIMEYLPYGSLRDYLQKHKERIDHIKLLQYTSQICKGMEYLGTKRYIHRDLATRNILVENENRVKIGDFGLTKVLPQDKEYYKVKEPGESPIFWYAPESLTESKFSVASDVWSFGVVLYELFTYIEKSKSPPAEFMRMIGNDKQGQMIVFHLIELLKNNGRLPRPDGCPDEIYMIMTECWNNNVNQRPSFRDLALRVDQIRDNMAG
With `Cc1cc(Nc2nccc(-c3ccc(OC4CCOCC4)nc3)n2)ccc1N1C2CCC1CC(N(C)C)C2` (stereo not shown) [compound 283, 4-(6-(tetrahydropyran-4-yloxy)pyridin-3-yl)-N-(3-methyl-4-(3-(dimethylamino)-8-azabicyclo[3.2.1]octan-8-yl)phenyl)pyrimidin-2-amine], the GI50 was less than 1 µM.

As for `Cc1cc(Nc2nccc(-c3cnc(N)c(CCCC(=O)OC(C)C)c3)n2)ccc1N1C[C@@H]2C[C@H]1CN2C` [compound 253, 4-(5-(1-methylethoxy)carbonylpropyl-6-aminopyridin-3-yl)-N-(3-methyl-4-((1S,4S)-5-methyl-2,5-diazabicyclo[2.2.1]heptan-2-yl)phenyl)pyrimidin-2-amine], the GI50 was less than 1 µM.

In the case of `CCOCCCNc1ccc(-c2ccnc(Nc3ccc(N4CC5(C)CN(C)CC(C)(C4)C5)c(C)c3)n2)cn1` [compound 211, 4-(6-(3-ethoxypropyl)aminopyridin-3-yl)-N-(3-methyl-4-(1,5,7-trimethyl-3,7-diazabicyclo[3.3.1]nonan-3-yl)phenyl)pyrimidin-2-amine], the GI50 was less than 1 µM.

Turning to `Cc1cc(Nc2nccc(-c3ccc(NCCC(C)(C)C)nc3)n2)ccc1N1C[C@@H]2C[C@H]1CN2C` [compound 218, 4-(6-(3,3-dimethylbutyl)aminopyridin-3-yl)-N-(3-methyl-4-((1S,4S)-5-methyl-2,5-diazabicyclo[2.2.1]heptan-2-yl)phenyl)pyrimidin-2-amine], the GI50 is less than 1 µM.

With `Cc1cc(Nc2nccc(-c3cnc4c(c3)OC(C)(C)C(=O)N4)n2)ccc1N1C[C@@H]2C[C@H]1CN2C1CC1` [compound 247, 4-(2,2-dimethyl-3-oxo-3,4-dihydro-2H-pyrido[3,2-b][1,4]oxazin-7-yl)-N-(3-methyl-4-((1S,4S)-5-cyclopropyl-2,5-diazabicyclo[2.2.1]heptan-2-yl)phenyl)pyrimidin-2-amine], the GI50 was less than 1 µM.

Take `Cc1cc(Nc2nccc(-c3ccc(N4C[C@@H](C)O[C@@H](C)C4)nc3)n2)ccc1N1C[C@@H]2C[C@H]1CO2` (relative stereo) [compound 201]: the GI50 is less than 1 µM.

With `Cc1cc(Nc2nccc(-c3ccc4c(c3)CCCC(=O)N4)n2)ccc1N1CCN2C(C1)[C@H]1CC[C@@H]2C1` (stereo partly drawn) [compound 278, 4-(2-oxo-2,3,4,5-tetrahydro-1H-benzo[b]azepin-7-yl)-N-(3-methyl-4-((6R,9S)-6,9-methanooctahydro-1H-pyrido[1,2-a]pyrazin-2-yl)phenyl)pyrimidin-2-amine], the GI50 was less than 1 µM.

The same assay, now with this note: Ba/F3 V617F cells, proliferation, level of activity to inhibit JAK2, read-out: IC50 (the source's name).
Turning to `CN1C[C@@H]2C[C@H]1CN2c1ccc(Nc2nccc(-c3cc[nH]c3)n2)cc1C(F)(F)F` [compound 171, 4-(1H-pyrrol-3-yl)-N-(3-trifluoromethyl-4-((1S,4S)-5-methyl-2,5-diazabicyclo[2.2.1]heptan-2-yl)phenyl)pyrimidin-2-amine], the GI50 was less than 1 µM.

As to `Cc1cc(Nc2nccc(-c3ccc(C#N)nc3)n2)ccc1N1C[C@@H]2C[C@H]1CN2C` [compound 111, 4-(6-cyanopyridin-3-yl)-N-(3-methyl-4-((1S,4S)-5-methyl-2,5-diazabicyclo[2.2.1]heptan-2-yl)phenyl)pyrimidin-2-amine], the GI50 lay in the range of 1 to 10 µM.

Consider `CCCNc1ncc(-c2ccnc(Nc3ccc(N4C[C@@H]5C[C@H]4CN5C)c(F)c3)n2)cn1` [compound 93, 4-(2-(propyl)aminopyrimidin-5-yl)-N-(3-fluoro-4-((1S,4S)-5-methyl-2,5-diazabicyclo[2.2.1]heptan-2-yl)phenyl)pyrimidin-2-amine], for which the GI50 is less than 1 µM.

As for `CN1C[C@@H]2C[C@H]1CN2c1ccc(Nc2nccc(-c3ccc(N4CCOCC4)nc3)n2)cc1C#N` [compound 118, 4-(6-(morpholin-4-yl)pyridin-3-yl)-N-(3-cyano-4-((1S,4S)-5-methyl-2,5-diazabicyclo[2.2.1]heptan-2-yl)phenyl)pyrimidin-2-amine], the GI50 was less than 1 µM.

Consider `Cc1cc(Nc2nccc(-c3cnc4[nH]ccc4c3)n2)ccc1N1C[C@@H]2C[C@H]1CN2CC(F)(F)F` [compound 34, 4-(1H-pyrrolo[2,3-b]pyridin-5-yl)-N-(3-methyl-4-((1S,4S)-5-(2,2,2-trifluoroethyl)-2,5-diazabicyclo[2.2.1]heptan-2-yl)phenyl)pyrimidin-2-amine], for which the GI50 was less than 1 µM.

For `CN1C[C@@H]2C[C@H]1CN2c1ccc(Nc2nccc(-c3ccc(NC(=O)NC4CC4)cc3)n2)cc1` [compound 139, 4-(4-(3-cyclopropylureido)phenyl)-N-(4-((1S,4S)-5-methyl-2,5-diazabicyclo[2.2.1]heptan-2-yl)phenyl)pyrimidin-2-amine], the GI50 is less than 1 µM.

For the compound `CC(=O)Nc1ccc(-c2ccnc(Nc3ccc(N4C[C@@H]5C[C@H]4CO5)c(C)c3)n2)cn1` [compound 147, 4-(6-(acetamido)pyridin-3-yl)-N-(3-methyl-4-((1S,4S)-5-oxa-2-azabicyclo[2.2.1]heptan-2-yl)phenyl)pyrimidin-2-amine], the GI50 was less than 1 µM.

Regarding `CN1C[C@@H]2C[C@H]1CN2c1ccc(Nc2nccc(-c3ccc4c(c3)NC(=O)CO4)n2)cc1F` [compound 124, 4-(2H-benzo[b][1,4]oxazin-3(4H)-on-6-yl)-N-(3-fluoro-4-((1S,4S)-5-methyl-2,5-diazabicyclo[2.2.1]heptan-2-yl)phenyl)pyrimidin-2-amine], the GI50 is less than 1 µM.

As for `CN1C[C@@H]2C[C@H]1CN2c1ccc(Nc2nccc(-c3ccc(N4CCOCC4)nc3)n2)cc1C(F)(F)F` [compound 97, 4-(6-(morpholin-4-yl)pyridin-3-yl)-N-(3-trifluoromethyl-4-((1S,4S)-5-methyl-2,5-diazabicyclo[2.2.1]heptan-2-yl)phenyl)pyrimidin-2-amine], the GI50 was less than 1 µM.

(Values after patent US9624229B2, “Pyrimidine-2-amine compounds and their use as inhibitors of JAK kinases” (Rigel Pharmaceuticals, Inc., priority 2008, dated 2017).)
